PubChem BioAssay (NCI)
“And” between values parts separate entries of the source, which are not always exact repeats. Equal values may be shown once.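 48-hour exposure; five concentrations; linearly interpolated endpoints. GI50 marks 50% less growth. At the TGI there is no net growth.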

Columns and labels:
Experiment in all cases: inhibition of tumour cell growth, NCI panel, 48 h
IGROV1 ovarian = test system: IGROV1 ovarian
OVCAR-4 ovarian = test system: OVCAR-4 ovarian
M14 melanoma = test system: M14 melanoma
LOX IMVI melanoma = test system: LOX IMVI melanoma
OVCAR-3 ovarian = test system: OVCAR-3 ovarian
SNB-75 CNS = test system: SNB-75 CNS
SF-539 CNS = test system: SF-539 CNS
RXF 393 renal = test system: RXF 393 renal
PC-3 prostate = test system: PC-3 prostate
TK-10 renal = test system: TK-10 renal

SMILES | GI50 (IGROV1 ovarian) | TGI (IGROV1 ovarian) | GI50 (OVCAR-4 ovarian) | TGI (OVCAR-4 ovarian) | GI50 (M14 melanoma) | TGI (M14 melanoma) | GI50 (LOX IMVI melanoma) | TGI (LOX IMVI melanoma) | GI50 (OVCAR-3 ovarian) | TGI (OVCAR-3 ovarian) | GI50 (SNB-75 CNS) | TGI (SNB-75 CNS) | GI50 (SF-539 CNS) | TGI (SF-539 CNS) | GI50 (RXF 393 renal) | TGI (RXF 393 renal) | GI50 (PC-3 prostate) | TGI (PC-3 prostate) | GI50 (TK-10 renal) | TGI (TK-10 renal)
COc1ccc(C2CC(=O)Nc3c2c(C)nn3-c2nc3ccccc3[nH]2)cc1OC (stereo not drawn) | 4.67 µM | > 93.3 µM | 6.42 µM | > 100 µM | 3.45 µM | 20.4 µM | 4.51 µM | 19.1 µM | 3.99 µM | 14 µM | 3.46 µM | > 56.1 µM | 2.85 µM | 9.48 µM | 2.19 µM | 5.69 µM | 4.27 µM | 63.6 µM | 8.95 µM | 93.5 µM
Cn1cc(-c2[nH]c3cc(NC(=O)[C@H](N)C4CCCCC4)cc4c3c2C=NNC4=O)cn1 | 0.603 µM and 0.367 µM | 14.3 µM and > 10 µM | 0.184 µM and 0.217 µM | 10.5 µM and > 10 µM | 0.163 µM and 0.234 µM | 0.493 µM and > 4.31 µM | 0.305 µM and 0.268 µM | 3.52 µM and 1.66 µM | 0.229 µM and 0.144 µM | 3.02 µM and 3.73 µM | 0.339 µM and 0.311 µM | 1.88 µM and 1.84 µM | 0.118 µM and 0.109 µM | 0.67 µM and 0.628 µM | 0.104 µM and 0.187 µM | 0.502 µM and 0.745 µM | 0.72 µM and 1.96 µM | 18.3 µM and > 10 µM | 0.675 µM and 0.467 µM | 12.7 µM and > 10 µM
CCN(Cc1c(F)cccc1C(F)(F)F)c1ccc(CO)c(Cl)c1 | < 0.0338 µM | – | 0.132 µM | 9.9 µM | 17.4 µM | 33.4 µM | 18.1 µM | 33.3 µM | 0.261 µM | 4.9 µM | 12.5 µM | 26.4 µM | 15.6 µM | 29.4 µM | 12.6 µM | 28.5 µM | 12.3 µM | 25.3 µM | 0.0682 µM | 0.322 µM
Cc1cc(S(=O)(=O)Nc2nc3ccccc3s2)c(SCc2ccccc2)cc1Cl | 27.4 µM | 94.3 µM | 13.2 µM | 51.8 µM | 19.2 µM | 36.6 µM | 12.1 µM | 24.5 µM | 8 µM | 23.3 µM | – | – | 16.5 µM | 32.7 µM | 23.8 µM | 49.7 µM | 13.5 µM | 28.8 µM | 14.1 µM | 44.7 µM
CNC(=O)c1cc(Oc2ccc(NC(=O)Nc3ccc(Cl)c(C(F)(F)F)c3)cc2)ccn1 | 3.52 µM and 3.44 µM and 2.6 µM | > 10 µM and 15.3 µM and 9.14 µM | 3.07 µM and 3.67 µM and 3.42 µM | > 10 µM and 11.5 µM and 22.2 µM | 2.15 µM and 2.11 µM and 2.18 µM | 7.98 µM and 5.03 µM and 5.96 µM | 2.52 µM and 1.5 µM and 1.67 µM | > 10 µM and 3.3 µM and 4.31 µM | – | – | 1.86 µM and 2.65 µM and 2.73 µM | > 10 µM and 8.98 µM and 8.78 µM | 1.97 µM and 2.32 µM and 1.62 µM | > 10 µM and 9.07 µM and 4.82 µM | 3.58 µM and 2.88 µM and 3.41 µM | > 10 µM and 9.26 µM and 9.86 µM | 2.2 µM and 2.6 µM and 2.14 µM | 8.51 µM and 8.9 µM and 8.57 µM | 4.41 µM and 3.83 µM and 4.48 µM | > 10 µM and 9.96 µM and 20.2 µM
CN1CCN(CCCn2c3c(sc4ncccc43)c(=O)n3nnc(-c4ccccc4)c23)CC1 | 1.69 µM | 4.22 µM | 1.87 µM | 3.73 µM | 4.67 µM | 9.5 µM | 1.39 µM | 2.75 µM | 1.81 µM | 3.42 µM | 9.85 µM | 23.4 µM | 1.71 µM | 3.33 µM | 4.4 µM | 8.75 µM | 1.61 µM | 4.03 µM | 3.15 µM | 10.7 µM
COC1C[C@H](O[C@@H]2C[C@H](O[C@@H]3C[C@H](O[C@@H]4C(=O)c5c(cc6cc(O[C@H]7C[C@@H](O[C@H]8C[C@@H](O)[C@H](O)C(C)O8)[C@H](O)C(C)O7)c(C)c(O)c6c5O)C[C@H]4C(OC)C(=O)[C@@H](O)[C@@H](C)O)OC(C)[C@H]3O)OC(C)[C@@H]2O)OC(C)[C@@H]1O (stereo partly drawn) | – | – | 0.134 µM | 2.76 µM | 0.191 µM | 2.15 µM | 0.0545 µM | 0.168 µM | 0.0936 µM | 0.773 µM | 0.0622 µM | 0.442 µM | 0.0736 µM | 0.316 µM | 0.094 µM | 0.525 µM | 0.123 µM | > 32.5 µM | 0.173 µM | 6.4 µM
Nc1cc2c3ccccc3ccc2c2ccccc12 | > 100 µM | > 100 µM | > 22.5 µM | > 100 µM | > 100 µM | > 100 µM | 9.13 µM | > 100 µM | > 67 µM | > 100 µM | > 30.5 µM | > 100 µM | > 51.2 µM | > 100 µM | > 100 µM | > 100 µM | 7.78 µM | > 100 µM | > 100 µM | > 100 µM
CC1(/C=C/c2ccc(-c3ccccc3)cc2)CCn2cnc3ncnc(c32)N1O (stereo not drawn) | 0.337 µM | 14.1 µM | 0.298 µM | > 50.2 µM | 0.265 µM | 2.49 µM | 0.302 µM | 21.6 µM | 0.425 µM | 20.7 µM | 0.387 µM | 14.5 µM | 0.388 µM | 5.55 µM | 0.88 µM | 40.3 µM | 0.57 µM | 34.8 µM | 0.492 µM | > 100 µM
C=C1C(=O)O[C@H]2[C@H]1CC/C(COC(=O)NCCc1ccc(Br)cc1)=C\CC[C@@]1(C)O[C@@H]21 | 1.08 µM | 2.59 µM | 1.56 µM | 3.29 µM | 1.26 µM | 2.73 µM | 1.18 µM | 2.58 µM | 0.984 µM | 2.27 µM | 1.2 µM | 2.45 µM | 1.46 µM | 2.88 µM | 1.2 µM | 2.68 µM | 1.73 µM | 3.32 µM | 1.73 µM | 3.12 µM
C#Cc1cccc(NC(=O)C2CCCCN2C(=O)CCl)c1 (stereo not drawn) | 9.72 µM | 27.1 µM | 8.77 µM | 24.5 µM | 18.8 µM | 74.9 µM | 7.6 µM | 18.6 µM | 10.1 µM | 22.2 µM | 17.9 µM | > 82.5 µM | 17.4 µM | 49.4 µM | 13.4 µM | 34.4 µM | 32.9 µM | > 82.5 µM | 15.6 µM | 33.6 µM
COc1cc2cc(C(=O)Nc3ccccc3)c(N)nc2cc1OC | 56.3 µM | > 100 µM | 29.8 µM | > 100 µM | 33.1 µM | > 100 µM | 42.3 µM | > 100 µM | 50.9 µM | > 100 µM | 29.2 µM | > 100 µM | 71.6 µM | > 100 µM | 23.7 µM | > 100 µM | 31.2 µM | > 100 µM | 63.5 µM | > 100 µM
